According to US8063065B2, “Azaindazole compounds as CCR1 receptor antagonists” (Boehringer Ingelheim International GmbH, priority 2008, dated 2011):

Molecular target: T1, CCR1 (Homo sapiens, UniProt P32246)
T1 sequence (P32246 1-355): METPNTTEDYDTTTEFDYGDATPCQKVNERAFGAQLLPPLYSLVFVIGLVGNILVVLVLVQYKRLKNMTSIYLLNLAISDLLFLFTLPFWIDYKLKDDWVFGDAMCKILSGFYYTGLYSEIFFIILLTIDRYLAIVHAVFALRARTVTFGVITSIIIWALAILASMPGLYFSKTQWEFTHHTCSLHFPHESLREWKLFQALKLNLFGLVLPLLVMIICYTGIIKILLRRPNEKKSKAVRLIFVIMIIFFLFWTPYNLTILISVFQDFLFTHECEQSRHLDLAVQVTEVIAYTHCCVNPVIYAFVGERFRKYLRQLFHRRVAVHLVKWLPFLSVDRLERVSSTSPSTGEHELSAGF
Assay: Method A: calcium flux in CCR1 transfected cells (Fluo-4 NW, FLIPR TETRA), block of the CCR1/MIP-1α interaction
Assay type: cell-based
Settings: Method A: Fluo-4 NW, MIP-1 alpha at EC80
Experimental: Compounds are assessed for the ability to block the interaction of CCR1 and MIP-1α in a functional cellular assay measuring calcium flux in CCR1 transfected cells.
Method A: Non-adherent cells purchased from Chemicon Corporation (HTS005C), stably expressing recombinant CCR1 and G-alpha-16 are grown in RPMI 1640 medium (Mediatech 10-080-CM) supplemented with 10% heat-inactivated FBS, 0.4 mg/mL Geneticin and penicillin/streptomycin. On the day of the assay, the cells are transferred to a beaker and dye-loaded in bulk using a Fluo-4 NW Calcium Assay Kit with probenecid (Invitrogen F36205) at 0.8E6 cells/mL for 1 hour at room temperature. After 1 hour, they are seeded in a 384-well tissue culture-treated plate at a density of 20,000 cells/well. Appropriately diluted test compound is added to the well to achieve a top concentration of 3,000 nM (diluted 4-fold with 10 doses total). The final concentration of DMSO is 1%. The buffer is HBSS (Invitrogen 14025) with 20 mM HEPES at pH 7.4. The cells are allowed to incubate 1 hour in the dark at room temperature. The plates are transferred to the FLIPR TETRA where MIP-1 alpha in 1% BSA is added at the EC80 final concentration. Wells+/−MIP-1 alpha containing diluted DMSO instead of compound serve as the controls. Intracellular calcium flux is recorded on the FLIPR TETRA, using excitation at 470/495 nm and emission at 515/575 nm. Data are analyzed using Activity Base software.

| Structure (SMILES) | IC50 |
| --- | --- |
| CC(=O)OCCN(C)S(=O)(=O)c1ccc(CNC(=O)c2cncc3c2cnn3-c2ccc(F)cc2)cc1 [Acetic acid 2-{[4-({[1-(4-fluorophenyl)-1H-pyrazolo[3,4-c]pyridine-4-carbonyl]-amino}-methyl)-benzenesulfonyl]-methyl-amino}-ethyl ester] | 2 nM |
| CN(C1CCOCC1)S(=O)(=O)c1ccc(CNC(=O)c2cncc3c2cnn3-c2ccc(F)cc2)cc1 [1-(4-Fluorophenyl)-1H-pyrazolo[3,4-c]pyridine-4-carboxylic acid 4-[methyl-(tetrahydropyran-4-yl)-sulfamoyl]-benzylamide] | 2 nM |
| O=C(NCc1ccc(S(=O)(=O)NCCO)cc1)c1cncc2c1cnn2-c1ccc(F)cc1 [1-(4-Fluorophenyl)-1H-pyrazolo[3,4-c]pyridine-4-carboxylic acid 4-(2-hydroxy-ethylsulfamoyl)-benzylamide] | 1 nM |
| CS(=O)(=O)c1cccc(CNC(=O)c2cncc3c2cnn3-c2ccc(Cl)cc2)c1 [1-(4-Chlorophenyl)-1H-pyrazolo[3,4-c]pyridine-4-carboxylic acid 3-methanesulfonyl-benzylamide] | 7 nM |
| CCC[C@H](NC(=O)c1cncc2c1cnn2-c1ccc(F)cc1)c1cncc(S(C)(=O)=O)c1 [1-(4-Fluorophenyl)-1H-pyrazolo[3,4-c]pyridine-4-carboxylic acid [(S)-1-(5-methanesulfonyl-pyridin-3-yl)-butyl]-amide] | 0.3 nM |
| C[C@@H](CO)NS(=O)(=O)c1ccc(CNC(=O)c2cncc3c2cnn3-c2ccc(F)cc2)cc1 [1-(4-Fluorophenyl)-1H-pyrazolo[3,4-c]pyridine-4-carboxylic acid 4-((S)-2-hydroxy-1-methyl-ethylsulfamoyl)-benzylamide] | 2 nM |

Molecular target: T1, CCR1
Assay: Method B: calcium flux in CCR1 transfected cells (Calcium 4 dye, […] FDSS6000), block of the CCR1/MIP-1α interaction
Assay type: cell-based
Settings: Method B: Calcium 4 dye, MIP-1alpha at EC80
How it was run: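 Non-adherent cells stably expressing CCR1 and G-alpha-16 were loaded with Calcium 4 dye plus probenecid for 1 h at room temperature. Compounds (top 3,000 nM, 4-fold, 10 doses, 1% DMSO) in HBSS/20 mM HEPES pH 7.4 were incubated 30 min at 37 C, then 30 min at room temperature. MIP-1α at EC80 was added and calcium flux read on FDSS6000.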

| Structure (SMILES) | IC50 |
| --- | --- |
| CS(=O)(=O)c1cc(CNC(=O)c2cncc3c2cnn3-c2ccc(F)cc2)cc(NCC(N)=O)n1 [1-(4-Fluorophenyl)-1H-pyrazolo[3,4-c]pyridine-4-carboxylic acid [2-(carbamoylmethyl-amino)-6-methanesulfonyl-pyridin-4-ylmethyl]-amide] | 11 nM |
| CC[C@H](NC(=O)c1cncc2c1cnn2-c1ccc(F)cc1)c1ccnc(SC)c1 [1-(4-Fluorophenyl)-1H-pyrazolo[3,4-c]pyridine-4-carboxylic acid [(S)-1-(2-methylsulfanyl-pyridin-4-yl)-propyl]-amide] | 0.2 nM |
| CC[C@H](NC(=O)c1cncc2c1cnn2-c1ccc(F)cc1)c1cncc(S(=O)(=O)CCC(=O)OC)c1 [3-[5-((S)-1-{[1-(4-Fluorophenyl)-1H-pyrazolo[3,4-c]pyridine-4-carbonyl]-amino}-propyl)-pyridine-3-sulfonyl]-propionic acid methyl ester] | 6.3 nM |
| CC[C@H](NC(=O)c1cncc2c1cnn2-c1ccc(F)cc1)c1ccnc(NC)c1 [1-(4-Fluorophenyl)-1H-pyrazolo[3,4-c]pyridine-4-carboxylic acid [(S)-1-(2-methylamino-pyridin-4-yl)-propyl]-amide] | 4 nM |
| CCC(NC(=O)c1cncc2c1cnn2-c1ccc(F)cc1)c1nc(C(=O)NCC(N)=O)c(C)o1 (centres unmarked) [1-(4-Fluorophenyl)-1H-pyrazolo[3,4-c]pyridine-4-carboxylic acid {1-[4-(carbamoylmethyl-carbamoyl)-5-methyl-oxazol-2-yl]-propyl}-amide] | 25 nM |
| CC[C@H](NC(=O)c1cncc2c1cnn2-c1ccc(F)cc1)c1ccnc(C(N)=O)c1 [1-(4-Fluorophenyl)-1H-pyrazolo[3,4-c]pyridine-4-carboxylic acid [(S)-1-(2-carbamoyl-pyridin-4-yl)-propyl]-amide] | 1 nM |
| CC[C@H](NC(=O)c1cncc2c1cnn2-c1ccc(F)cc1)c1ccnc(CO)c1 [1-(4-Fluorophenyl)-1H-pyrazolo[3,4-c]pyridine-4-carboxylic acid [(S)-1-(2-hydroxymethyl-pyridin-4-yl)-propyl]-amide] | 3 nM |
| CC[C@H](NC(=O)c1cncc2c1cnn2-c1ccc(F)cc1)c1ccccn1 [1-(4-Fluorophenyl)-1H-pyrazolo[3,4-c]pyridine-4-carboxylic acid ((S)-1-pyridin-2-yl-propyl)-amide] | 23 nM |
| CS(=O)(=O)c1cc([C@H](CC(O)CO)NC(=O)c2cncc3c2cnn3-c2ccc(F)cc2)ccn1 (single isomer, unassigned) | 11 nM |
| C[C@H](NC(=O)c1cncc2c1cnn2-c1ccc(F)cc1)c1cnc(S(C)(=O)=O)s1 [1-(4-Fluorophenyl)-1H-pyrazolo[3,4-c]pyridine-4-carboxylic acid [(S)-1-(2-methanesulfonyl-thiazol-5-yl)-ethyl]-amide] | 6 nM |
| CC[C@H](NC(=O)c1cncc2c1cnn2-c1ccc(F)cc1)c1ccnc(C)c1 [1-(4-Fluorophenyl)-1H-pyrazolo[3,4-c]pyridine-4-carboxylic acid [(S)-1-(2-methyl-pyridin-4-yl)-propyl]-amide] | 0.9 nM |
| CS(=O)(=O)c1cc([C@H](CO)NC(=O)c2cncc3c2cnn3-c2ccc(F)cc2)ccn1 [1-(4-Fluorophenyl)-1H-pyrazolo[3,4-c]pyridine-4-carboxylic acid [(R)-2-hydroxy-1-(2-methanesulfonyl-pyridin-4-yl)-ethyl]-amide] | 6 nM |
| CC[C@H](NC(=O)c1cncc2c1cnn2-c1ccc(F)cc1)c1cncc(S(N)(=O)=O)c1 [1-(4-Fluorophenyl)-1H-pyrazolo[3,4-c]pyridine-4-carboxylic acid [(S)-1-(5-sulfamoyl-pyridin-3-yl)-propyl]-amide] | 0.3 nM |
| CC[C@H](NC(=O)c1cncc2c1cnn2-c1ccc(F)cc1)c1ccncc1 [1-(4-Fluorophenyl)-1H-pyrazolo[3,4-c]pyridine-4-carboxylic acid ((S)-1-pyridin-4-yl-propyl)-amide] | 6 nM |
| CC[C@H](NC(=O)c1cncc2c1cnn2-c1ccc(F)cc1)c1cccc(S(N)(=O)=O)n1 [1-(4-Fluorophenyl)-1H-pyrazolo[3,4-c]pyridine-4-carboxylic acid [(S)-1-(6-sulfamoyl-pyridin-2-yl)-propyl]-amide] | 0.3 nM |
| CC[C@H](NC(=O)c1cncc2c1cnn2-c1ccc(F)cc1)c1ccn(S(=O)(=O)c2ccc(C)cc2)c1 [1-(4-Fluorophenyl)-1H-pyrazolo[3,4-c]pyridine-4-carboxylic acid {(S)-1-[1-(toluene-4-sulfonyl)-1H-pyrrol-3-yl]-propyl}-amide] | 3 nM |
| C=CC[C@H](NC(=O)c1cncc2c1cnn2-c1ccc(F)cc1)c1ccncc1 [1-(4-Fluorophenyl)-1H-pyrazolo[3,4-c]pyridine-4-carboxylic acid ((S)-1-pyridin-4-yl-but-3-enyl)-amide] | 32 nM |
| CC[C@H](NC(=O)c1cncc2c1cnn2-c1ccc(F)cc1)c1ccnc([S+](C)[O-])c1 (stereo partly drawn) [1-(4-Fluorophenyl)-1H-pyrazolo[3,4-c]pyridine-4-carboxylic acid [(S)-1-(2-methanesulfinyl-pyridin-4-yl)-propyl]-amide] | 0.5 nM |
| CC[C@H](NC(=O)c1cncc2c1cnn2-c1ccc(F)cc1)c1cccc(S(=O)(=O)CCC(=O)OC)n1 [3-[6-((S)-1-{[1-(4-Fluorophenyl)-1H-pyrazolo[3,4-c]pyridine-4-carbonyl]-amino}-propyl)-pyridine-2-sulfonyl]-propionic acid methyl ester] | 3 nM |
| C[C@H](NC(=O)c1cncc2c1cnn2-c1ccc(F)cc1)c1ccnc(S(N)(=O)=O)c1 [1-(4-Fluorophenyl)-1H-pyrazolo[3,4-c]pyridine-4-carboxylic acid [(S)-1-(2-sulfamoyl-pyridin-4-yl)-ethyl]-amide] | 3 nM |
